Assay results as given in patent publication US8957026B2, “Beta-catenin targeting peptides and uses thereof” (President and Fellows of Harvard College, priority 2010, dated 2015).
“Also recorded” adds a separate entry of the source. Positions of bridges follow the written chain, without caps; N, C: chain ends. Non-standard residues stand in square brackets, D forms with d. Residues, ends and D or L forms follow the SMILES beside them. *: point of attachment. FITC = O=C1OC2(c3ccc(O)cc3Oc3cc(O)ccc32)c2ccc(NC(=S)*)cc21; S5 = C=CCCC[C@](C)(N)C(=O)O; βAla = NCCC(=O)O

Key:
[1] = biological target: T1, N-terminally GST-tagged human β-catenin (Homo sapiens, UniProt P35222); experiment: Fluorescence polarization assay with FITC-labeled peptides and GST-tagged β-catenin; format: binding; conditions: for increase in binding affinity to β-catenin compared to the wild type sequence (ax-WT): versus Axin wild type peptide
T1 sequence (P35222 1-781): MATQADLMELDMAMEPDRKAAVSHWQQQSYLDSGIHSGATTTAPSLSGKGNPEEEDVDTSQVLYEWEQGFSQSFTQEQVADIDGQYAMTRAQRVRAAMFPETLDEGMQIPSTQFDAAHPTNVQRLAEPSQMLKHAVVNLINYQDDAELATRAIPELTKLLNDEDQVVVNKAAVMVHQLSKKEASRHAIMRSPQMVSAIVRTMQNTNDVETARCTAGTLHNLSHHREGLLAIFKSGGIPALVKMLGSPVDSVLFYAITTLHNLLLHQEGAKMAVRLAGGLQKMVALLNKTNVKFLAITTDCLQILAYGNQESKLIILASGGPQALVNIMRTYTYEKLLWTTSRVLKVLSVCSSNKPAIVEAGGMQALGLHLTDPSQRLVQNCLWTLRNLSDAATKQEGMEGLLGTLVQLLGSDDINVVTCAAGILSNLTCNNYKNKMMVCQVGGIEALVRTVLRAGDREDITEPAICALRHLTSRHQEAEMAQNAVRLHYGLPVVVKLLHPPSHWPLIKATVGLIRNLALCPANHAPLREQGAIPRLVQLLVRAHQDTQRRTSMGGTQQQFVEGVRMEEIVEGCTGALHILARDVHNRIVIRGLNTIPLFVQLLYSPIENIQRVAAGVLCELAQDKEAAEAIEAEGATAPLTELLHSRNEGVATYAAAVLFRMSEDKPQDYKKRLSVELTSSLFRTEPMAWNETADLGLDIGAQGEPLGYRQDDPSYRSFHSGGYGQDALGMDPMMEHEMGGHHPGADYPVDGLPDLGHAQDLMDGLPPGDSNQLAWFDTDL
Source text: FIG. 4 depicts (a) superimposed crystal structures of TCF4 (PDB ID: 2GL7)[14] and Axin (PDB ID: 1QZ7)[15] bound to β-catenin; (b) sequences of modified peptides with NCBI accession and covered amino acids (* amino acids 29-37 were replaced by two βAla); (c) fluorescence polarization assays using FITC-labeled peptides and N-terminally GST-tagged human β-catenin (with corresponding Kds).
FIG. 7 depicts (a) fluorescently labeled peptide sequences resulting from phage display affinity optimization (entries 1, 4 and 17/18 in FIG. 6b); (b) fluorescence polarization assay with fluorescently labeled peptides and N-terminally GST-tagged human β-catenin (with corresponding Kds).
Peptide sequences derived from TCF4 and Axin were synthesized and fluorescently labeled (FIG. 4b) and the affinity of both binding domains to β-catenin was assessed. […] Therefore, the Axin derivative was considered to be the most promising candidate for the hydrocarbon stapling approach. It combines a relatively short and helical peptide sequence (15 amino acids) with moderate binding of β-catenin (Kd of ˜5 μM).

[2] = Circular dichroism spectra with calculated helicities; format: physicochemical
Source text: Based on the crystal structure of the Axin/β-catenin complex there are four residues (yellow, FIG. 5a) that are not involved in β-catenin binding[15] and should be suitable for modification without affecting binding. Taking into consideration that only i,i+4 (one helix turn) and i,i+7 5 (two helix turns) positioning of modified residues allows sufficient cross-linking[8] three hydrocarbon stapled sequences (STAX-1, 2 and 3, FIG. 5b) were designed. Circular dichroism spectra of the fluorescently labeled peptides were recorded allowing the calculation of helicities (FIG. 5c). […] Therefore, STAX-3 was chosen as starting point for further optimizations.

SW480 cells = experiment: Cell penetration assay monitoring fluorescence of FITC-labeled peptides; format: cell-based; conditions: 10 μM peptide in 10% serum, 24 h, confocal microscope
Method: Besides its affinity to β-catenin it is cell permeability that impacts the capability of a peptide to interfere with the intracellular target. Therefore, the ability to penetrate cells was tested by monitoring fluorescence of the fluorescein(FITC)-labeled peptides.

[3] = test system: Wnt-dependent luciferase reporter; experiment: Dual-luciferase Wnt-dependent reporter gene assay; format: cell-based; conditions: firefly signal normalized to Renilla luciferase control
Method: FIG. 10 depicts (a) stapled peptide sequences with corresponding Kd to β-catenin (blue boxes mark mutations meant to disrupt binding to (β-catenin, charges at pH 7.5 are calculated values); (b) inhibition of a Wnt-dependent luciferase reporter (dual-luciferase assay: signal was normalized to Renilla luciferase control); (c) dose-dependent effect of STAX-147 and STAX-160 in the dual-luciferase assay.
The cell penetrating stapled peptides were tested for their effects on transcriptional activity using an established reporter gene assay. In this dual-luciferase assay firefly luciferase is transcriptionally regulated by constitutively activated Wnt signaling. The firefly signal is normalized to the Renilla luciferase control.

| SMILES | increase in binding affinity to β-catenin compared to the wild type sequence (ax-WT) [1] | change of affinity to β-catenin (in words) ([1]; compared to wild type or parent peptide) | helicity ([2]; calculated from circular dichroism spectra of the fluorescently labeled peptide) [%] | change of helicity (in words) ([2]; compared to the wild type sequence (ax-WT)) | increase in helicity compared to the wild type sequence (ax-WT) ([2]; versus ax-WT) [fold] | cell permeability (SW480 cells) | increase in binding affinity to β-catenin upon sequence modification ([1]; versus the preceding stapled peptide of the optimization series) | effect on Wnt-dependent luciferase reporter activity [3] |
| --- | --- | --- | --- | --- | --- | --- | --- | --- |
| CC[C@H](C)[C@H](NC(=O)[C@H](CO)NC(=O)[C@H](CCC(=O)O)NC(=O)[C@@H]1CCCN1C(=O)[C@H](Cc1c[nH]c2ccccc12)NC(=O)[C@H](CCCNC(=N)N)NC(=O)CCNC(=S)Nc1ccc2c(c1)C(=O)OC21c2ccc(O)cc2Oc2cc(O)ccc21)C(=O)N[C@@H](CC(C)C)C(=O)N[C@@H](CC(=O)O)C(=O)N[C@@H](CCC(=O)O)C(=O)N[C@@H](Cc1c[nH]cn1)C(=O)N[C@@H](Cc1c[nH]c2ccccc12)C(=O)N[C@@H](CCC(=O)O)C(=O)N[C@@H](CCCNC(=N)N)C(=O)N[C@H](C(=O)N[C@@H](CCSC)C(=O)N[C@@H](CCCNC(=N)N)C(N)=O)C(C)C [phage-01] ({FITC-βAla}-RWPESILDEHWERVMR-NH2) | 39 fold |  |  |  |  |  |  |  |
| CC[C@H](C)[C@@H]1NC(=O)[C@@](C)(NC(=O)[C@H](CCC(=O)O)NC(=O)[C@@H]2CCCN2C(=O)[C@H](CC(N)=O)NC(=O)[C@H](CCC(=O)O)NC(=O)CCNC(=S)Nc2ccc3c(c2)C(=O)OC32c3ccc(O)cc3Oc3cc(O)ccc32)CCCC=CCCC[C@@](C)(C(=O)N[C@@H](Cc2c[nH]cn2)C(=O)N[C@H](C(=O)N[C@@H](CCC(N)=O)C(=O)N[C@@H](CCCNC(=N)N)C(=O)N[C@H](C(=O)N[C@@H](CCSC)C(N)=O)C(C)C)C(C)C)NC(=O)[C@H](CC(=O)O)NC(=O)[C@H](CC(C)C)NC1=O [STAX-3] ({FITC-βAla}-ENPE[S5]ILD[S5]HVQRVM-NH2; staple 5-9) | 80 fold | increased | 51 | increased | 3.4 | non cell permeable |  |  |
| CC[C@H](C)[C@@H]1NC(=O)[C@@](C)(NC(=O)[C@H](CCC(N)=O)NC(=O)[C@@H]2CCCN2C(=O)[C@H](Cc2c[nH]c3ccccc23)NC(=O)[C@H](CCCNC(=N)N)NC(=O)COCCOCCNC(=S)Nc2ccc3c(c2)C(=O)OC32c3ccc(O)cc3Oc3cc(O)ccc32)CCCC=CCCC[C@@](C)(C(=O)N[C@@H](Cc2c[nH]cn2)C(=O)N[C@H](C(=O)N[C@@H](CCCNC(=N)N)C(=O)N[C@@H](CCCNC(=N)N)C(=O)N[C@H](C(=O)N[C@@H](Cc2c[nH]c3ccccc23)C(=O)N[C@@H](CCCNC(=N)N)C(N)=O)C(C)C)C(C)C)NC(=O)[C@H](CC(=O)O)NC(=O)[C@H](CC(C)C)NC1=O [STAX-090] | more than 600 fold |  |  |  |  | increased further; also recorded: good permeability | two fold increase | repression of luciferase activity |
| CC[C@H](C)[C@H](NC(=O)[C@H](CO)NC(=O)[C@H](CCC(=O)O)NC(=O)[C@@H]1CCCN1C(=O)[C@H](CC(N)=O)NC(=O)[C@H](CCC(=O)O)NC(=O)CCNC(=S)Nc1ccc2c(c1)C(=O)OC21c2ccc(O)cc2Oc2cc(O)ccc21)C(=O)N[C@@H](CC(C)C)C(=O)N[C@@H](CC(=O)O)C(=O)N[C@@H](CCC(=O)O)C(=O)N[C@@H](Cc1c[nH]cn1)C(=O)N[C@H](C(=O)N[C@@H](CCC(N)=O)C(=O)N[C@@H](CCCNC(=N)N)C(=O)N[C@H](C(=O)N[C@@H](Cc1c[nH]c2ccccc12)C(=O)N[C@@H](CCCNC(=N)N)C(N)=O)C(C)C)C(C)C [phage-17/18] ({FITC-βAla}-ENPESILDEHVQRVWR-NH2) | 8 fold |  |  |  |  |  |  |  |
